Experimental findings from patent US8377934B2, “Use of stilbene derivatives for treatment and prevention of aquatic mold infections” (State of Israel, Ministry of Agriculture & Rural …, priority 2006, dated 2013) are described below.

In brackets after ≈: the same amount, converted by molar mass.

The test system of data set [1] is S. parasitica CBS 540.67. Put plainly: Broth macrodilution susceptibility testing (zoospores and cysts). It counts as cell-based, Saprolegnia parasitica. The protocol:
(§1) Two methods were used, each suitable for a different phase of the asexual life cycle of Saprolegnia spp.: i) the broth macrodilution method, for determination of susceptibility of zoospores and cysts; and ii) the agar-dilution method for determination of susceptibility of filamentous hyphae. Each compound was tested three times in each method. Malachite Green was used as positive control.
(§2) This method is a modification of the method used for molds according to EUCAST 7.1 (European Committee on Antibiotic Susceptibility Testing) and CLSI/NCCLS M27-A2 (Clinical Laboratory Standards Institute/National Committee for Clinical Laboratory Standards). For inoculum preparation, S. parasitica isolates were cultured on GP-PS for 7 days with sterile clover seeds at 18° C. […] Cysts and zoospores free from hyphae were collected, and an inoculum of ˜10^3 CFU/ml as measured by hemacytometer counting, was prepared in RPMI. Fluorescent Brightener 28 stock solution was prepared by adding 40% KOH gradually to a 10 mg/ml solution in water, until it was clear, then it was filtered twice through a 0.2 μm cellulose acetate nonpyrogenic sterile filter (Schleicher & Schuell, Dassel, Germany).
(§3) Final drug concentrations in the test tubes ranged from 1×10^4 to 0.01 mg/L. Inoculum of 0.9 ml was added to each of a sterile tube containing 0.1 ml of the serially diluted drug. Two tubes containing drug-free medium and two tubes containing drug-free inoculum were used as controls. The inoculated tubes were incubated at room temperature (15-20° C.) for 24 h. The growth in each tube was then evaluated visually.

For the next data set, the system named is S. parasitica T-1. The description is as above. To be noted: 24 h. It is filed as cell-based, Saprolegnia parasitica. The protocol:
as §1, §2, §3

Data set [2] concerns S. parasitica CBS 540.67. Put plainly: Agar-dilution susceptibility testing (filamentous hyphae). It is filed as cell-based, Saprolegnia parasitica.
A further data set deals with S. parasitica. Briefly: In vitro susceptibility of S. parasitica in Table 4. It counts as cell-based, Saprolegnia parasitica. As to the method:
The in vitro susceptibility of Saprolegnia parasitica T-1 and S. parasitica CBS 540.67 to various compounds was determined by the agar-dilution and broth macrodilution methods.
as §1
This method is a modification of the method used for molds according to EUCAST 7.1 (European Committee on Antibiotic Susceptibility Testing) and CLSI/NCCLS M27-A2 (Clinical Laboratory Standards Institute/National Committee for Clinical Laboratory Standards). For inoculum preparation, S. parasitica isolates were cultured on GP-PS for 7 days with sterile clover seeds at 18° C. Clover seeds (˜20) covered with mycelium were removed and added to 40 ml of RPMI-1640 broth medium (Sigma; prepared according to NCCLS instructions) and incubated at 18° C. for 4-7 days. Cysts and zoospores free from hyphae were collected, and an inoculum of ˜10^3 CFU/ml as measured by hemacytometer counting, was prepared in RPMI. Fluorescent Brightener 28 stock solution was prepared by adding 40% KOH gradually to a 10 mg/ml solution in water, until it was clear, then it was filtered twice through a 0.2 μm cellulose acetate nonpyrogenic sterile filter (Schleicher & Schuell, Dassel, Germany).
Twofold serial dilutions of the resulting stock solutions were set in RPMI-1640 medium in a volume of 0.1 ml. Final drug concentrations in the test tubes ranged from 1×10^4 to 0.01 mg/L. Inoculum of 0.9 ml was added to each of a sterile tube containing 0.1 ml of the serially diluted drug. Two tubes containing drug-free medium and two tubes containing drug-free inoculum were used as controls. The inoculated tubes were incubated at room temperature (15-20° C.) for 24 h. The growth in each tube was then evaluated visually.
This method is a modification of the method presented by Bailey (Bailey, T. A. (1983) Prog. Fish Cult. 45:24-27), and was used for the susceptibility testing of Saprolegnia hyphae. Twofold serial dilutions were prepared in double distillated sterile water with final drug concentrations ranging from 10,000 to 0.01 mg/L in a final volume of 1.0 ml. Melted (56° C.) RPMI-1640 agar medium (Sigma) was prepared according to NCCLS instructions, and then added to each tube containing drug or water control. The mixture was vortexed, and poured into small plates. After agar solidification a small measured piece, taken from a 7-10 day old culture of S. parasitica T-1 on GP-PS medium was placed upside down on each plate. The plates were incubated at room temperature (15-20° C.) for 24 h.

Another data set concerns tilapia. Put plainly: in vivo. The following applies: for LC50: tilapia, mortality up to 96 h. As to the method:
LC50 values were determined by static short-term tests as a measure of the relative acute lethal toxicity for tilapia (Standard methods for the evaluation of water and wastewater (1985) 16th ed. American Public Health Association, Washington, D.C. p. 689-819).
Hybrid tilapia (Oreochromis niloticus X Oreochromis aureus) having an average weight of 20 g, were kept in 100 liter polyethylene tanks at a density of 1 fish per 10 liters, at a constant temperature of 21° C. for three weeks before the initiation of the experiment by addition of a test compound to each tank. […] For the latter experiments, fish were acclimated to the required temperature for three weeks prior to addition of the test compound to the tank. Fish were treated with 5 different concentrations of each test compound, determined according to the MIC values of each compound.
Mortality of fish was recorded up to 96 h. Water parameters (O2, NH4^+, NO2^−, pH and Cl^−) were monitored throughout the experiment and were maintained within acceptable limits. The presented results are the mean of two separate experiments.

The mark [3] stands for this setting: S. parasitica CBS 540.67, 24 h, 15-20° C., geometric mean of three tests.

For `O=S(=O)([O-])c1cc(Nc2nc(Nc3ccccc3)nc(N(CCO)CCO)n2)ccc1C=Cc1ccc(Nc2nc(Nc3ccccc3)nc(N(CCO)CCO)n2)cc1S(=O)(=O)[O-].[K+].[Na+]` [Blankophor® BA], the “MIC, Macrodilution” value was found to be 200 mg/L against S. parasitica CBS 540.67 [1] (setting [3]) and 100 mg/L against S. parasitica T-1 (S. parasitica T-1, 15-20° C., geometric mean of three tests). Besides, in the data set with S. parasitica CBS 540.67 [2] (setting [3]), the “MIC, Agar-dilution” value amounted to 200 mg/L. The “Activity in vitro (MIC), grade” value in the data set on S. parasitica (Table 4 summary) was “Moderate”. For the same compound, in the data set on S. parasitica (Table 4 summary), the “Activity in vitro (MIC), value” was “(100 mg/L)”. Further, the Toxicity entry with tilapia (Table 4 summary) is “Low (low = >1000 ppm)”. Further, the LC50 in the data set on tilapia (15° C.), with tilapia (18° C.) and with tilapia (25° C.) was >2,000 mg/L throughout.
Usually MIC stands for the lowest concentration that inhibits growth of the organism. `C=O` [Formaldehyde]: the minimum inhibitory concentration (MIC) in the data set on S. parasitica CBS 540.67 [1] (Saprolegnia parasitica, CBS540, 24 h, read-out: MIC, Macrodilution) is 100 mg/L (≈ 3.33 mM); in the data set with S. parasitica T-1 (Saprolegnia parasitica, read-out: MIC, Macrodilution), 100 mg/L (≈ 3.33 mM); in the data set with S. parasitica CBS 540.67 [2] (Saprolegnia parasitica, CBS540, 24 h, read-out: MIC, Agar-dilution), 100 mg/L (≈ 3.33 mM); with S. parasitica (Saprolegnia parasitica, read-out: Activity in vitro (MIC), value), 100 mg/L (≈ 3.33 mM). Further, the Toxicity entry in the data set with tilapia (in vivo) is “Moderate (key: High: high = 50 ppm; Moderate: moderate = 50-200 ppm; Low: low = >1000 ppm)”.
